Structures can show the parent of a compound that is named as a salt. Blank lines part the entries; values can stand above or below the compound they belong to.
Columns and labels:
Format in all cases: physicochemical
[1] = TGA and DSC/mDSC thermal analysis (characterization of forms)
Procedure: In salt screening and evaluation and in polymorph study, TGA was performed using a TA Q500, TA Q5000 or Discovery 5500 TGA from TA Instruments. DSC or mDSC was performed using a TA Q200/Q2000 or Discovery 2500 DSC from TA Instruments.

[2] = Angle of repose (flowability)
Source text: Form the angle of repose on a fixed base with a retaining lip to retain a layer of powder on the base. Carefully build up a symmetrical cone of powder. Determine the angle of repose by measuring the height (h) and base radius (r) of the cone of powder and calculating the angle of repose a from the following equation α=tan^−1(h/r).
(§1) The results of amorphous freebase, Freebase Type F, Fumarate Type B and Fumarate Type E for flowability and compressibility were summarized in Table 30. Generally, powders with smaller Karl index would show better compressibility and flowability. And powders with smaller angle of repose would show better flowability.

[3] = Solid state stability, 40° C./75% RH/open for 1 month (XRPD, HPLC purity); conditions: for Purity/Initial by HPLC area % / Form Change: 40° C., 75% RH, open; for Form Change: by XRPD; for Purity change by HPLC (chemical stability) compared with amorphous freebase: 40° C./75% RH; for Solid form change by XRPD (physical stability): 40° C./75% RH/open
Procedure: (§2) An Agilent 1260 HPLC instrument was utilized and detailed chromatographic conditions for purity and solubility analysis were listed in Table 6.
To evaluate the solid state stability of the selected forms (amorphous freebase, Freebase Type F, Fumarate Type A and Fumarate Type B) samples were stored under 40° C./75% RH/open for 1 month. Stability samples were characterized by XRPD to check any solid form change and by HPLC to check purity change.

[4] = Bulk density, tap density and Carr index (flowability and compressibility); conditions: for Carr index: (ρ1−ρ0)/ρ1; for Tapped density: tapped 200 times
Procedure: Bulk density was determined by adding appropriate amount (m) of material into a 5 mL graduate cylinder and recording its apparent volume (v0). The bulk density was obtained by dividing the amount of material by its apparent volume of the unsettled material (ρ0=m/v0). For tap density, the cylinder was then tapped for 200 times. The tap density was then calculated by dividing the amount of material by its final tapped volume (ρ1=m/v1). Carr index=(ρ1−ρ0)/ρ1.
as §1

[5] = Equilibrium solubility in H2O; conditions: 37° C., stirred 24 hours
Procedure: as §2
About 5˜10 mg of solids were suspended in H2O to get a mixture. The suspensions were stirred for 24 hours, followed by centrifugation and filtration to obtain supernatants for HPLC test.

[6] = Contact angle against water (wettability)
Procedure: The wettability of the solid forms was evaluated by the contact angle against water.

Hygroscopicity by DVS = conditions: 80% RH, 25° C.
Procedure: DVS is measured via a SMS (Surface Measurement Systems) DVS Intrinsic. The relative humidity at 25° C. is calibrated against deliquescence point of LiCl, Mg(NO3)2 and KCl.
DVS isotherm plot was collected at 25° C. to investigate the selected solid forms stability as a function of humidity. Compared with amorphous freebase, the hygroscopicity of Freebase Type B, Fumarate Type A, Fumarate Type B and Fumarate Type E was lower under 80% RH/25° C.

[7] = Equilibrium solubility in pH 6.8 buffer; conditions: 37° C., stirred 24 hours
Procedure: as §2
About 5˜10 mg of solids were suspended in pH 6.8 buffer to get a mixture. The suspensions were stirred for 24 hours, followed by centrifugation and filtration to obtain supernatants for HPLC test.

[8] = Equilibrium solubility in pH 4.5 buffer; conditions: 37° C., stirred 24 hours
Procedure: as §2
About 5˜10 mg of solids were suspended in pH 4.5 buffer to get a mixture. The suspensions were stirred for 24 hours, followed by centrifugation and filtration to obtain supernatants for HPLC test.

[9] = Kinetic solubility in FaSSIF; conditions: 37° C.
Procedure: as §2
Kinetic solubility of amorphous freebase and Fumarate Type B/E was measured in FaSSIF to evaluate the solubility. […] After centrifugation, supernatants were collected for HPLC tests.

[10] = Mechanical stability (XRPD form change after grinding and tableting)
Procedure: Mechanical stability of the solid forms was evaluated by monitoring the XRPD form change after grinding (˜5 min) and tableting (˜234 Mpa).

[11] = crystalline salts, listed as HCl salt Type A
[12] = crystalline salts, listed as HCl salt Type B

TGA weight loss (150° C., %) ([1]; crystalline salts): 3.0%
DSC endotherm (° C., peak) ([1]; crystalline salts): 106.7 °C
Compound: COc1ccc2ncnc(Nc3ccc(Oc4cc5ncnn5cn4)c(C)c3)c2c1O[C@@H]1CCN(C)CC1(F)F [Adipate Type A, (R)-N-(4-([1,2,4]triazolo[1,5-c]pyrimidin-7-yloxy)-3-methylphenyl)-5-((3,3-difluoro-1-methylpiperidin-4-yl)oxy)-6-methoxyquinazolin-4-amine]

TGA weight loss (%, temp.) ([1]; fumarate forms, to 150° C.): 3.6 (to 150° C.) %
Compound: COc1ccc2ncnc(Nc3ccc(Oc4cc5ncnn5cn4)c(C)c3)c2c1O[C@@H]1CCN(C)CC1(F)F [Amorphous Fumarate, (R)-N-(4-([1,2,4]triazolo[1,5-c]pyrimidin-7-yloxy)-3-methylphenyl)-5-((3,3-difluoro-1-methylpiperidin-4-yl)oxy)-6-methoxyquinazolin-4-amine]

DSC endotherm (° C., peak) ([1]; free base forms): 71.3 °C
TGA weight loss (%, temp.) ([1]; free base forms, to 140° C.): 9.9 (to 140° C.) %
Compound: COc1ccc2ncnc(Nc3ccc(Oc4cc5ncnn5cn4)c(C)c3)c2c1O[C@@H]1CCN(C)CC1(F)F [Freebase Type A, (R)-N-(4-([1,2,4]triazolo[1,5-c]pyrimidin-7-yloxy)-3-methylphenyl)-5-((3,3-difluoro-1-methylpiperidin-4-yl)oxy)-6-methoxyquinazolin-4-amine]

TGA weight loss (%, temp.) ([1]; free base forms, to 150° C.): 1.5 (to 150° C.) %
Compound: COc1ccc2ncnc(Nc3ccc(Oc4cc5ncnn5cn4)c(C)c3)c2c1O[C@@H]1CCN(C)CC1(F)F [Freebase Type C, (R)-N-(4-([1,2,4]triazolo[1,5-c]pyrimidin-7-yloxy)-3-methylphenyl)-5-((3,3-difluoro-1-methylpiperidin-4-yl)oxy)-6-methoxyquinazolin-4-amine]

Angle of repose [2]: 35.8°
TGA weight loss (%, temp.) ([1]; free base forms, to 70° C.): 5.7 (to 70° C.) %
Purity/Initial by HPLC area % [3]: 100.3%
Form Change [3]: No
Purity change by HPLC (chemical stability) compared with amorphous freebase [3]: lower purity change
Solid form change by XRPD (physical stability) [3]: no form change
Bulk density [4]: 0.19 g/mL
Carr index [4]: 31.9%
Tapped density [4]: 0.28 g/mL
Compound: COc1ccc2ncnc(Nc3ccc(Oc4cc5ncnn5cn4)c(C)c3)c2c1O[C@@H]1CCN(C)CC1(F)F [Freebase Type F, (R)-N-(4-([1,2,4]triazolo[1,5-c]pyrimidin-7-yloxy)-3-methylphenyl)-5-((3,3-difluoro-1-methylpiperidin-4-yl)oxy)-6-methoxyquinazolin-4-amine]

TGA weight loss (%, temp.) ([1]; free base forms, to 70° C.): 7.3 (to 70° C.) %
Compound: COc1ccc2ncnc(Nc3ccc(Oc4cc5ncnn5cn4)c(C)c3)c2c1O[C@@H]1CCN(C)CC1(F)F [Freebase Type G, (R)-N-(4-([1,2,4]triazolo[1,5-c]pyrimidin-7-yloxy)-3-methylphenyl)-5-((3,3-difluoro-1-methylpiperidin-4-yl)oxy)-6-methoxyquinazolin-4-amine]

Solubility in H2O [5]: ≥5200 µg/mL
Contact angle [6]: 29.0°
Weight change at 80% RH/25° C. by DVS (Hygroscopicity by DVS): 2.1%
Solubility in pH 6.8 buffer [7]: 0.90 mg/mL
Solubility in pH 4.5 buffer [8]: 2.3 mg/mL
Solubility in FaSSIF ([9]; timepoint 1 h): ≥390 µg/mL
Solubility in FaSSIF ([9]; timepoint 2 h): ≥390 µg/mL
Solubility in FaSSIF ([9]; timepoint 24 h): ≥390 µg/mL
Angle of repose [2]: 26.6°
TGA weight loss (150° C., %) ([1]; crystalline salts): 4.9%
TGA weight loss (%, temp.) ([1]; fumarate forms, to 150° C.): 4.9 (to 150° C.) %
Purity/Initial by HPLC area % [3]: 99.6%
Form Change [3]: No
Purity change by HPLC (chemical stability) compared with amorphous freebase [3]: lower purity change
Solid form change by XRPD (physical stability) [3]: no form change
Bulk density [4]: 0.36 g/mL
Carr index [4]: 30.4%
Tapped density [4]: 0.52 g/mL
Compound: COc1ccc2ncnc(Nc3ccc(Oc4cc5ncnn5cn4)c(C)c3)c2c1O[C@@H]1CCN(C)CC1(F)F [Fumarate Type B, (R)-N-(4-([1,2,4]triazolo[1,5-c]pyrimidin-7-yloxy)-3-methylphenyl)-5-((3,3-difluoro-1-methylpiperidin-4-yl)oxy)-6-methoxyquinazolin-4-amine]

Solubility in H2O [5]: ≥5000 µg/mL
Weight change at 80% RH/25° C. by DVS (Hygroscopicity by DVS): 2.1%
Solubility in pH 6.8 buffer [7]: 0.92 mg/mL
Solubility in pH 4.5 buffer [8]: 1.3 mg/mL
Solubility in FaSSIF ([9]; timepoint 1 h): ≥360 µg/mL
Solubility in FaSSIF ([9]; timepoint 2 h): ≥360 µg/mL
Solubility in FaSSIF ([9]; timepoint 24 h): ≥360 µg/mL
Angle of repose [2]: 38.3°
TGA weight loss (150° C., %) ([1]; crystalline salts): 9.4%
TGA weight loss (%, temp.) ([1]; fumarate forms, to 150° C.): 9.4 (to 150° C.) %
Bulk density [4]: 0.30 g/mL
Carr index [4]: 41.7%
Tapped density [4]: 0.51 g/mL
XRPD form change after grinding ([10]; grinding ~5 min): No
XRPD form change after tableting ([10]; tableting ~234 Mpa): No
Compound: COc1ccc2ncnc(Nc3ccc(Oc4cc5ncnn5cn4)c(C)c3)c2c1O[C@@H]1CCN(C)CC1(F)F [Fumarate Type E, (R)-N-(4-([1,2,4]triazolo[1,5-c]pyrimidin-7-yloxy)-3-methylphenyl)-5-((3,3-difluoro-1-methylpiperidin-4-yl)oxy)-6-methoxyquinazolin-4-amine]

TGA weight loss (150° C., %) [1, 11]: 8.8%
DSC endotherm (° C., peak) [1, 11]: 110.0 °C
Compound: COc1ccc2ncnc(Nc3ccc(Oc4cc5ncnn5cn4)c(C)c3)c2c1O[C@@H]1CCN(C)CC1(F)F [HCl Salt Type A, (R)-N-(4-([1,2,4]triazolo[1,5-c]pyrimidin-7-yloxy)-3-methylphenyl)-5-((3,3-difluoro-1-methylpiperidin-4-yl)oxy)-6-methoxyquinazolin-4-amine]

TGA weight loss (150° C., %) [1, 12]: 2.3%
DSC endotherm (° C., peak) [1, 12]: 241.7 °C
Compound: COc1ccc2ncnc(Nc3ccc(Oc4cc5ncnn5cn4)c(C)c3)c2c1O[C@@H]1CCN(C)CC1(F)F [HCl Salt Type B, (R)-N-(4-([1,2,4]triazolo[1,5-c]pyrimidin-7-yloxy)-3-methylphenyl)-5-((3,3-difluoro-1-methylpiperidin-4-yl)oxy)-6-methoxyquinazolin-4-amine]

TGA weight loss (150° C., %) ([1]; crystalline salts): 3.7%
Compound: COc1ccc2ncnc(Nc3ccc(Oc4cc5ncnn5cn4)c(C)c3)c2c1O[C@@H]1CCN(C)CC1(F)F [L-tartrate Type A, (R)-N-(4-([1,2,4]triazolo[1,5-c]pyrimidin-7-yloxy)-3-methylphenyl)-5-((3,3-difluoro-1-methylpiperidin-4-yl)oxy)-6-methoxyquinazolin-4-amine]

TGA weight loss (150° C., %) ([1]; crystalline salts): 10.2%
DSC endotherm (° C., peak) ([1]; crystalline salts): 65.1 °C
Compound: COc1ccc2ncnc(Nc3ccc(Oc4cc5ncnn5cn4)c(C)c3)c2c1O[C@@H]1CCN(C)CC1(F)F [Mesylate Type A, (R)-N-(4-([1,2,4]triazolo[1,5-c]pyrimidin-7-yloxy)-3-methylphenyl)-5-((3,3-difluoro-1-methylpiperidin-4-yl)oxy)-6-methoxyquinazolin-4-amine]

TGA weight loss (150° C., %) ([1]; crystalline salts): 7.6%
DSC endotherm (° C., peak) ([1]; crystalline salts): 63.4 °C
Compound: COc1ccc2ncnc(Nc3ccc(Oc4cc5ncnn5cn4)c(C)c3)c2c1O[C@@H]1CCN(C)CC1(F)F [Mesylate Type B, (R)-N-(4-([1,2,4]triazolo[1,5-c]pyrimidin-7-yloxy)-3-methylphenyl)-5-((3,3-difluoro-1-methylpiperidin-4-yl)oxy)-6-methoxyquinazolin-4-amine]

TGA weight loss (150° C., %) ([1]; crystalline salts): 9.5%
Compound: COc1ccc2ncnc(Nc3ccc(Oc4cc5ncnn5cn4)c(C)c3)c2c1O[C@@H]1CCN(C)CC1(F)F [Phosphate Type A, (R)-N-(4-([1,2,4]triazolo[1,5-c]pyrimidin-7-yloxy)-3-methylphenyl)-5-((3,3-difluoro-1-methylpiperidin-4-yl)oxy)-6-methoxyquinazolin-4-amine]

Source: patent US20240417403A1, “CRYSTALLINE FORMS OF QUINAZOLINE DERIVATIVES, PREPARATION, COMPOSITION AND USE THEREOF” (Hoffmann-La Roche Inc., priority 2021, published 2024)
